{"source": "patent US5506204A", "about": "“Muramyl compounds for treatment of septic shock” (Peptech (UK) Limited, priority 1991, dated 1996)", "key": {"TNFα [1]": {"system": "TNFα", "experiment": "Example 5: TNF production in whole blood culture", "type": "cell-based", "details": "human blood diluted 1:2, 6 hours at 37° C., TNFα capture ELISA; FIG. 3", "protocol": "Whole heparinized human blood was diluted 1:2 with RPMI and dispensed into 96-well microtitre plates. Individual wells were treated with saline, GMDP, MDP or LPS at the doses shown above. After incubating at 37° C. for 6 hours, the supernatants were assayed for TNFα by a standard capture ELISA method. […] This is a sensitive assay for measuring the effect of mediators on immune cell production of TNFα which is believed to be a primary mediator of inflammation, coagulopathy and death in sepsis and septic shock. It can be seen that GMDP is the least inflammatory mediator; the respective TNF inducing activities of these substances would […] correlate with their toxicities."}, "Pyrogenicity": {"experiment": "Pyrogenicity", "details": "in vivo", "protocol": "The expression \"non pyrogenic or of low pyrogenicity\" refers to a compound which induces an increase in temperature of an adult human of less than half a degree following the administration of 1 to 2 mg of the compound.\nFirst, muramyl peptide compounds useful in the invention may be non-pyrogenic. Pyrogenicity may be simply measured by methods well known in the art."}, "neutrophils [2]": {"system": "neutrophils", "protocol": "(§1) Neutrophils were isolated from peripheral blood. 3.5 ml of heparinised blood was spread over M-PRM medium (Flow Laboratories) and centrifuged for 40 minutes at 400g at 20° C. […] The cells were adjusted to a concentration of 2×10^6 ml.\nAdhesion: 100 μl of neutrophil suspension were placed in the wells of a flat-bottomed culture dish, and incubated at 37° C. for 60 minutes. After washing off the non-adhesive cells, the adhered neutrophils were fixed with ethanol and stained with Romanovsky-Giemsa dye. After washing out the free dye, the cell-associated dye was dissolved in isopropanol, and the optical density (OD650) of the solution was determined using an \"ELISA II\" microprocessor (Boehringer). The number of adherent cells was calculated by reference to a standard curve.\n(§2) In the treated group GMDP was given per os on days -2 and -1 before the operation, and subcutaneously on days +1, +2 and +3 after the operation at a dose of 1-2 mg/day. The total dose of GMDP was […]. On day +5 after the operation neutrophil function was again assessed in all patients by the same parameters as specified above."}, "neutrophils [3]": {"system": "neutrophils", "protocol": "as §1\n(§3) Superoxide anion production was determined by the NBT test (Merck).\n(§4) For chemiluminescence, superoxide anion production, myeloperoxidase and acid phosphatase both the spontaneous and induced reactions were measured. Induction was performed by exposing the cells to opsonized zymosan (30 μl, 20 mg/ml) for 30 minutes at 37° C. before the assay.\nas §2", "remark": "listed apart in the source"}, "neutrophils [4]": {"system": "neutrophils", "protocol": "as §1\nMyeloperoxidase: 100 μl of substrate mixture, consisting of 0.04% orthophenylene diamine (Sigma) and 0.014% hydrogen peroxide in phosphate citrate buffer (pH 5.0) was added to cells and incubated for 10 minutes before the reaction was stopped with 100 μl of 10% sulphuric acid. The optical density at 492 mu was measured with a Multiscan Titertek Plus (Flow Laboratories).\nas §4, §2", "remark": "listed apart in the source"}, "neutrophils [5]": {"system": "neutrophils", "protocol": "as §1\n(§5) Chemiluminescence: Luminol-dependent chemiluminescence was measured on a 1251 Luminometer (LKB).\nas §4\n(§6) On day before treatment with GMDP (day -1) the neutrophil function of all patients was measured by the tests described above in Example 1. In the GMDP-treated group, GMDP was administered parenterally at a dose of 1-2 mg/day for five consecutive days. The total dose of GMDP was […].\n(§7) One day after the cessation of GMDP treatment (day +6), neutrophil function was again measured in all patients.", "remark": "listed apart in the source"}, "mice": {"system": "mice", "details": "acute toxicity in mice; cited from earlier work"}, "peritoneal macrophages": {"system": "peritoneal macrophages", "details": "100 μg i.p. per mouse, LPS 300 μg one day later, black ink uptake, OD 610 nm; FIG. 2", "description": "Mice were divided into 9 groups and to each group was administered one of the following: saline, MDP, MDP-OBu, MDP-Thr, GMDP, MDP-Lys(St), GMDP-OH and GMDP-LL.\nThe compound under test was injected into the peritoneal cavity of mice, each mouse receiving 100 μg or an equimolar equivalent dose. Control mice received 200 μl of saline. One day after injection of the muramyl peptide, a lethal does of LPS (300 μg per mouse) in 200 μl of physiological saline was injected intraperitoneally and after 20 minutes, 1 ml of black ink was also administered intraperitoneally. 10 minutes later, peritoneal macrophages were obtained and washed twice. The number of cells was counted and then the macrophages were lysed and the optical density of the supernatant was determined at 610 nm."}, "neutrophils [6]": {"system": "neutrophils", "protocol": "as §1, §5, §4, §2", "remark": "listed apart in the source"}, "serum TNF": {"system": "serum TNF", "experiment": "Example 7: LPS induction of serum TNF", "type": "in vivo, BALB/c mice", "details": "C. parvum-primed mice, 100 μg (equimolar) IP, LPS 25 μg 18 hours later; FIG. 5", "protocol": "In this experiment, 4 compounds were tested and these are: MDP, GMDP-A, GMDP-OBu and GMDP. Saline was administered to control mice. BALB/c mice (6 mice/group) were injected intraperitoneally with 1.4 mg of dead C. parvum (0.2 ml of a 7 mg/ml suspension.). Mice were subsequently (2 weeks later) treated with saline, MDP (100 μg) or analogue (100 μg) in 0.5 ml saline IP. The dose of each `MDP` was adjusted so that animals received equimolar amounts. LPS (25 μg) was injected 18 hours after the injection of MDP/analogue and mice were subsequently sacrificed and bled out. TNF was determined by standard capture ELISA assay."}, "neutrophils [7]": {"system": "neutrophils", "protocol": "as §1, §3, §4, §6, §7", "remark": "listed apart in the source"}, "TNFα [8]": {"system": "TNFα", "experiment": "Example 8: TNF induction by muramyl peptides", "type": "in vivo, BALB/c mice", "details": "C. parvum-primed mice, 100 μg (equimolar) IP, LPS 25 μg 18 hours later; FIG. 6", "protocol": "Here, the muramyl peptides tested were prototype MDP, GMDP, GMDP-A, GMDP-OBu, GMDP-Lys(St), GMDPA-Lys(St), GMDP-Benz and Thr-MDP.\nBALB/mice (6 mice/groups) were injected intraperitoneally with 1.4 mg of dead C. parvum (0.2 ml of a 7 mg/ml suspension). Mice were subsequently (2 weeks later) treated with saline, MDP (100 μg) or analogue (100 μg) in 0.5 ml saline IP. The dose of each `MDP` was adjusted so that animals received equimolar amounts. […] (25 μg) was injected 18 hours after the injection of MDP/analogue and the mice were subsequently sacrificed and bled out. TNF was determined by standard capture ELISA assay."}, "[9]": {"details": "opsonized zymosan, Day -3 (before treatment)"}, "[10]": {"details": "opsonized zymosan, Day -3 to Day +5"}, "[11]": {"details": "opsonized zymosan, Day -1 (before treatment)"}, "[12]": {"details": "opsonized zymosan, Day -1 to Day +6"}}, "note": "Where two headings read alike, the source gives them in different places."}
{"smiles": "CC(=O)NC1C(OC2C(CO)OC(O)C(NC(C)=O)C2OC(C)C(=O)NC(C)C(=O)NC(CCC(=O)O)C(N)=O)OC(CO)C(O)C1O", "note": "[GMDP, N-acetyl-D-glucosaminyl-(β1-4)-N-acetylmuramyl-L-alanyl-D-isoglutamine]", "values": [{"measurement": "TNF production in whole blood culture", "setting": "TNFα [1]", "value": "poor inducer of TNF"}, {"measurement": "pyrogenicity", "setting": "Pyrogenicity", "value": "sufficiently low"}, {"measurement": "Adhesion", "setting": "neutrophils [2]; Day +5 after operation", "value": "47.9 ± 12.6", "unit": "O.D. 650μ"}, {"measurement": "Adhesion", "setting": "neutrophils [2]; Day -3 (before treatment)", "value": "39.8 ± 5.4", "unit": "O.D. 650μ"}, {"measurement": "Adhesion % Change", "setting": "neutrophils [2]; Day -3 to Day +5", "value": "+20.4%"}, {"measurement": "Superoxide, spontaneous", "setting": "neutrophils [3]; Day +5", "value": "97.6 ± 12.8"}, {"measurement": "Superoxide, spontaneous", "setting": "neutrophils [3]; Day -3 (before treatment)", "value": "78.9 ± 15.7"}, {"measurement": "Superoxide, spontaneous % Change", "setting": "neutrophils [3]; Day -3 to Day +5", "value": "+23.7%"}, {"measurement": "Superoxide, induced", "setting": "neutrophils [3]; opsonized zymosan, Day +5", "value": "134.9 ± 11.3"}, {"measurement": "Superoxide, induced", "setting": "neutrophils [3]; [9]", "value": "133.7 ± 16.1"}, {"measurement": "Superoxide, induced % Change", "setting": "neutrophils [3]; [10]", "value": "+0.9%"}, {"measurement": "Myeloperoxidase, spontaneous", "setting": "neutrophils [4]; Day +5", "value": "1075 ± 178.3", "unit": "O.D. 492μ"}, {"measurement": "Myeloperoxidase, spontaneous", "setting": "neutrophils [4]; Day -3 (before treatment)", "value": "1145 ± 204.1", "unit": "O.D. 492μ"}, {"measurement": "Myeloperoxidase, spontaneous % Change", "setting": "neutrophils [4]; Day -3 to Day +5", "value": -6.1, "unit": "%"}, {"measurement": "Myeloperoxidase, induced", "setting": "neutrophils [4]; opsonized zymosan, Day +5", "value": "948.3 ± 205", "unit": "O.D. 492μ"}, {"measurement": "Myeloperoxidase, induced", "setting": "neutrophils [4]; [9]", "value": "948.3 ± 205", "unit": "O.D. 492μ"}, {"measurement": "Myeloperoxidase, induced % Change", "setting": "neutrophils [4]; [10]", "value": "+11.2%"}, {"measurement": "Chemiluminescent, spontaneous", "setting": "neutrophils [5]; Day +6", "value": "4.16 ± 0.14", "unit": "mV"}, {"measurement": "Chemiluminescent, spontaneous", "setting": "neutrophils [5]; Day -1 (before treatment)", "value": "2.41 ± 0.14", "unit": "mV"}, {"measurement": "Chemiluminescent, spontaneous % Change", "setting": "neutrophils [5]; Day -1 to Day +6", "value": "+72.6%"}, {"measurement": "Chemiluminescent, induced", "setting": "neutrophils [5]; opsonized zymosan, Day +6", "value": "21.3 ± 3.51", "unit": "mV"}, {"measurement": "Chemiluminescent, induced", "setting": "neutrophils [5]; [11]", "value": "9.41 ± 2.1", "unit": "mV"}, {"measurement": "Chemiluminescent, induced % Change", "setting": "neutrophils [5]; [12]", "value": "+126.4%"}, {"measurement": "LD50", "setting": "mice", "value": 7000, "unit": "mg/kg"}, {"measurement": "phagocytic activity of macrophages", "setting": "peritoneal macrophages", "value": "potent in increasing macrophage activity"}, {"measurement": "Chemiluminescence, spontaneous", "setting": "neutrophils [6]; Day +5", "value": "3.37 ± 0.70", "unit": "mV"}, {"measurement": "Chemiluminescence, spontaneous", "setting": "neutrophils [6]; Day -3 (before treatment)", "value": "1.82 ± 0.07", "unit": "mV"}, {"measurement": "Chemiluminescence, spontaneous % Change", "setting": "neutrophils [6]; Day -3 to Day +5", "value": "+85.2%"}, {"measurement": "Chemiluminescence, induced", "setting": "neutrophils [6]; opsonized zymosan, Day +5", "value": "15.8 ± 4.2", "unit": "mV"}, {"measurement": "Chemiluminescence, induced", "setting": "neutrophils [6]; [9]", "value": "11.3 ± 2.1", "unit": "mV"}, {"measurement": "Chemiluminescence, induced % Change", "setting": "neutrophils [6]; [10]", "value": "+39.8%"}, {"measurement": "effect on LPS induction of serum TNF", "setting": "serum TNF", "value": "able to suppress the production of TNFα"}, {"measurement": "Superoxide, spontaneous", "setting": "neutrophils [7]; Day +6", "value": "84.3 ± 8.7", "unit": "O.D. 540μ"}, {"measurement": "Superoxide, spontaneous", "setting": "neutrophils [7]; Day -1 (before treatment)", "value": "55.5 ± 6.4", "unit": "O.D. 540μ"}, {"measurement": "Superoxide, spontaneous % Change", "setting": "neutrophils [7]; Day -1 to Day +6", "value": "+51.9%"}, {"measurement": "Superoxide, induced", "setting": "neutrophils [7]; [11]", "value": "92.1 ± 3.21", "unit": "O.D. 540μ"}, {"measurement": "Superoxide, induced % Change", "setting": "neutrophils [7]; [12]", "value": "+53.2%"}, {"measurement": "effect on LPS-induced TNFα production", "setting": "TNFα [8]", "value": "suppress TNFα production"}]}
